Marks after values point to notes of the source that are not given here.

The subject of data set [1] is LPS-induced pyrexia in mice. As to the kind of experiment: LPS-induced pyrexia in mice: serum biochemistry, liver and lung antioxidant enzymes, pyrexia. The class given is in vivo, BALB/c mice. The following applies: oral, 2 weeks before LPS, HED Se 200 μg, Zn 30 mg, O-CPs 300 mg, mean ± SD; for ALP / ALT / AST / BUN / Creatine / LDH / T Bilirubin: serum. The protocol: Six-week-old male BALB/c mice was purchased from the Firat University Experimental Animal Center. All mice were ad libitum access to standard rodent chow and water during the study. Mice were housed in cages throughout the study. The following conditions were maintained: temperature, 22±2° C.; relative humidity, 55±5%; and a 12-hours light: dark cycle. The care and treatment of the animals were in accordance with the guidelines established by the Use of Laboratory Animals and were approved by the Animal Care and Use Committee of Firat University. Two control groups were taken for studies. The normal control group was given PBS and the other control was given lipopolysaccharides (LPS) along with a vehicle, i.e., phosphate buffered saline. Forty-two mice were randomly divided into 6 treatment groups with 7 mice in each group as follows: Selenomethionine, zinc picolinate and O-CPs or vehicle were orally administered 2 weeks before LPS treatment. Control mice received 50 μL of PBS. Subsequently, rats in Groups 2 through 6 received LPS (0.04 mg/kg i.p.) 30 min after active treatment with Se, ZnPic, and O-CPs. Basal temperature readings for all treatments and LPS injections were done between 8.00 and 9.00 GMT to avoid temperature differences due to circadian rhythm. The change in rectal temperature in all rats were recorded 30 min after PBS or LPS injection and at subsequent 30 min intervals for 4 hours. After 6 hours of LPS treatment, the mice were euthanized and their blood, liver and lungs were collected for further analysis. Doses of selenomethionine, zinc picolinate and O-CPs were determined based on the Human Equivalent Dose (HED) for Drug Development according to Shin et al. (2010). Conversion of human doses to animal doses were based on body surface area. A conversion factor of 12.33 was used to convert human doses to mouse doses. The human equivalent dose was 200 μg of selenium (Se) from selenomethionine, 30 mg of zinc (Zn) from zinc picolinate and 300 mg of O-CPs. Selenomethionine dose: 200 μg/70 kg=2.86 μg/kg/day human*12.33=35.23 μg/kg/day per mouse; Zinc picolinate (20%) dose: 30 mg/70 kg=0.428 mg/kg/day human*12.33=5.28 elemental zinc mg/kg/day mouse=5.28*100/20=26.4 mg/kg/day per mouse; O-CPs dose: 300 mg/70 kg=4.29 mg/kg/day human*12.33=52.84 mg/kg/day per mouse. Serum levels of glucose, triglycerides, cholesterol, aspartate aminotransferase (AST), alanine aminotransferase (ALT), urea, and creatinine were analyzed with a portable automated chemistry analyzer (Samsung LABGEO PT10, Samsung Electronics Co., Suwon, Korea). Serum levels of MDA were analyzed by HPLC. Antioxidant enzymes (SOD, CAT, GSHPx) were measured using the relevant commercial kits according to the enzyme-linked immunosorbent assay (ELISA, Elx-800, Bio-Tek Instruments Inc, Vermont, USA) method. Serum, zinc and selenium levels in liver and lung were detected by atomic absorption spectroscopy (AAS). The samples size of the study was 42 mice (n=7; 6 groups) and analyzed with the help of G*Power package program (Version 3.1.9.2) with alpha error 0.05 and 85% power with effect size 0.65 calculated from previous studies. The data was analyzed using statistical analysis software (SPSS 17.0). In this study, conformity to the assumption of normality from the prerequisites of the parametric tests was performed using the “Shapiro-Wilk” test and the homogeneity of the variances were checked with the “Levene” test. Analysis of variance (ANOVA) test was performed to determine the differences between the groups and post-hoc Tukey test was used for multiple comparisons of the groups. Statistical significance was accepted as P<0.05.

The subject of data set [2] is corticosterone (CORT) induced aging rats. Put plainly: CORT-induced aging rats: body weight, serum and liver biochemistry, liver telomere length. The class given is in vivo, Wistar rats. The note with it: oral gavage daily 21 days, O-CP30/O-CP300 = 30/300 mg HED, NR 300 mg HED, mean ± SD. The protocol:
Wistar rats (n=7 in each group; 8 weeks old) were used and animals were reared at the temperature of (22±2° C.), humidity (55±5%) and a 12/12 hour light/dark cycle. Pellet food and water were provided ad libitum. The experiment was conducted under the protocol approved by Firat University. Two control groups were taken for studies. The normal control group was given phosphate-buffered saline (PBS) and the CORT control was given corticosterone (CORT). Doses of O-CPs and NR were determined based on the Human Equivalent Dose (HED) for Drug Development according to Shin et al. (2010). Conversion of human doses to animal doses was based on body surface area. A conversion factor of 6.17 was used to convert human doses to rat doses. The human equivalent dose was 30 mg and 300 mg for O-CPs and 300 mg for nicotinamide riboside. CORT (Sigma-Aldrich Co., St. Louis, Mo., USA) was suspended in saline with 0.1% Tween 80% and 0.2% DMSO. Rats in groups 2-7 were injected daily with CORT (40 mg/kg) subcutaneously for 21 consecutive days. All injections were performed in a volume of 2 ml/kg body weight, between 7:00 and 7:10 p.m. The rats were dosed with study product involving various dosages of O-CPs, NR and their combination by oral gavage, which was administered daily for 21 days. Serum levels of glucose, triglycerides, cholesterol, aspartate aminotransferase (AST), alanine aminotransferase (ALT), urea, and creatinine were analyzed with a portable automated chemistry analyzer (Samsung LABGEO PT10, Samsung Electronics Co., Suwon, Korea). Total serum CORT levels, and levels of nicotinamide adenine dinucleotide (NAD+) and NAD+ precursors such as nicotinamide (Nam), tryptophan (Trp), nicotinic acid (Na) and nicotinamide mononucleotide (NMN) and NADPH were measured […] using a commercial kit following the manufacturer's instructions by ELISA (Elx-800, Bio-Tek Instruments Inc, Vermont, USA). Telomere length in the liver was determined by qPCR. Telomerase activity was measured according to the telomerase repeat amplification protocol using a Trapeze kit (Chemicon/Millipore, Billerica, Mass.). The levels of glutathione (GSH) and reactive oxygen species (ROS) in the rat liver were determined using the corresponding commercial ELISA kits (Wako Pure Chemical Industries) according to the manufacturer's instructions. Serum levels of malondialdehyde (MDA) were analyzed by High Performance Liquid Chromatography (HPLC). Antioxidant enzymes [superoxide dismutase (SOD), catalase (CAT), glutathione peroxidase (GSHPx)] were measured using the relevant commercial kits according to the enzyme-linked immunosorbent assay (ELISA, Elx-800, Bio-Tek Instruments Inc, Vermont, USA) method. The samples size of the study was determined to be totally 49 rats (n=7; 7 groups) with the help of G*Power package program (Version 3.1.9.2) with alpha error 0.05 and 90% power with effect size 0.7 calculated from previous studies. The data was analyzed using statistical analysis software (SPSS 17.0). In this study, conformity to the assumption of normality from the prerequisites of the parametric tests was performed using the “Shapiro-Wilk” test and the homogeneity of the variances were checked with the “Levene” test. Analysis of variance (ANOVA) test was performed to determine the differences between the groups and post-hoc Tukey test was used for multiple comparisons of the groups. Statistical significance was accepted as P<0.05.

Take `C[Se]CC[C@H](N)C(=O)O` [Se, selenomethionine]: in data set [1], the “Liver, CAT” value is 41.89 ± 4.03^c U/mg; the “Liver, GSHPx” value was 44.79 ± 3.86^c U/mg; the “Liver, MDA” value is reported as 5.86 ± 0.26^b nmol/mL; the “Liver, SOD” value is listed as 95.16 ± 5.06^b U/mg. For the same compound, in data set [1], the “Lung, CAT” value was 32.29 ± 1.86^b U/mg; the “Lung, GSHPx” value is on record as 33.86 ± 3.41^b U/mg; the “Lung, MDA” value is 6.67 ± 0.49^b nmol/mL; the “Lung, SOD” value is listed as 59.32 ± 4.81^b U/mg. In data set [1], the ALP was 285.43 ± 10.33^b IU/L, the ALT is recorded as 261.57 ± 16.16^bc IU/L, the AST is 573.43 ± 59.23^b IU/L and the BUN is on record as 34.36 ± 3.26^b mg/dL. Moreover, in data set [1], the Creatine was 0.59 ± 0.08^ab mg/dL, the LDH is listed as 192.11 ± 10.72^c IU/L and the “T Bilirubin” value was 0.95 ± 0.08^b mg/dL.
With `NC(=O)c1ccc[n+]([C@@H]2O[C@H](CO)[C@@H](O)[C@H]2O)c1` [NR, nicotinamide riboside], in data set [2] (liver), the “Liver GSH” value was 33.25 ± 2.07^bc U/mg protein, the “Liver NADPH” value is 44.42 ± 2.31^c nmol/g, the “Liver Nicotinamide (Nam)” value is given as 1.60 ± 0.06^c μmol/g and the “Liver Nicotinamide adenine dinucleotide NAD+” value is recorded as 0.59 ± 0.04^c μmol/g. Besides, in data set [2] (liver), the “Liver Nicotinamide mono nucleotide (NMN)” value is 0.30 ± 0.02^bc μmol/g and the “Liver Nicotinic acid (Na)” value is 1.63 ± 0.09^abc μmol/g. In data set [2], the CORT was 102.16 ± 8.68^a ng/ml and the “Final Body Weight” value is on record as 222.86 ± 23.11^b g. In addition, in data set [2] (serum glucose), the GLU is 119.86 ± 7.10^ab mg/dl. For the same compound, in data set [2] (serum), the ALT was found to be 98.00 ± 5.55 U/L, the AST is on record as 114.71 ± 10.92 U/L, the BUN was found to be 22.90 ± 1.87 mg/dL and the CAT is listed as 114.69 ± 4.82^d U/ml. Moreover, in data set [2] (serum), the Creatine is 0.37 ± 0.08, the GSH-Px was 26.28 ± 1.98^d U/ml, the MDA is given as 1.74 ± 0.07^b nmol/ml and the SOD is on record as 61.36 ± 4.5^e U/ml.
For the compound zinc picolinate [Zn], in data set [1], the “Liver, CAT” value is recorded as 43.06 ± 3.24^c U/mg; the “Liver, GSHPx” value is given as 36.86 ± 1.98^d U/mg; the “Liver, MDA” value is recorded as 5.92 ± 0.35^b nmol/mL; the “Liver, SOD” value was 75.94 ± 5.93^c U/mg. Moreover, in data set [1], the “Lung, CAT” value is on record as 28.53 ± 1.70^c U/mg; the “Lung, GSHPx” value is reported as 28.08 ± 1.98^c U/mg; the “Lung, MDA” value is given as 6.83 ± 0.30^b nmol/mL; the “Lung, SOD” value is listed as 50.36 ± 2.93^c U/mg. In data set [1], the ALP is listed as 292.71 ± 15.34^ab IU/L, the ALT is on record as 280.43 ± 8.85^b IU/L, the AST is 580.86 ± 32.61^b IU/L and the BUN is 35.57 ± 3.20^ab mg/dL. Moreover, in data set [1], the Creatine is 0.59 ± 0.06^ab mg/dL, the LDH is given as 216.13 ± 11.39^b IU/L and the “T Bilirubin” value was 0.97 ± 0.08^b mg/dL.

For the origin of these results see patent US20230158105A1, “Compositions and uses of Oligo-chromopeptides and methods of making” (JDS Therapeutics, LLC, priority 2021, published 2023).
